pIC50: −log10 of the molar value. Starred links: 1 amine or outer side, 2 acyl side, 3 side chain; linkers in the order of their positions; H or OH if unused. Positions of bridges follow the written chain, without caps; N, C: chain ends. Non-standard residues stand in square brackets, D forms with d. Residues, ends and D or L forms follow the SMILES beside them. *: point of attachment. hPhe(3-Cl-4-CF3) = N[C@@H](CCc1ccc(C(F)(F)F)c(Cl)c1)C(=O)O; NMeAbu(4,4,4-F3) = CN[C@@H](CC(F)(F)F)C(=O)O; NMePhe(4-Me) = CN[C@@H](Cc1ccc(C)cc1)C(=O)O; NMedβ3hAla = C[C@H](CC(=O)[*:2])N(C)[*:1]; NMeAla(cPent) = CN[C@@H](CC1CCCC1)C(=O)O; NMeGly(cPent) = CN[C@H](C(=O)O)C1CCCC1; NMe3Pal = CN[C@@H](Cc1cccnc1)C(=O)O; NMeCha = CN[C@@H](CC1CCCCC1)C(=O)O; Pro(4-oxo) = O=C1CN[C@H](C(=O)O)C1; NMeChg = CN[C@H](C(=O)O)C1CCCCC1; NMeF = CN[C@@H](Cc1ccccc1)C(=O)O; NMeI = CC[C@H](C)[C@H](NC)C(=O)O; NMeD = CN[C@@H](CC(=O)O)C(=O)O; dNMeD = CN[C@H](CC(=O)O)C(=O)O; NMeL = CN[C@@H](CC(C)C)C(=O)O; NMeNle = CCCC[C@H](NC)C(=O)O; NMeV = CN[C@H](C(=O)O)C(C)C; Morpholide = C1CN(*)CCO1; NMeA = CN[C@@H](C)C(=O)O; Piperidide = C1CCN(*)CC1; Pyrrolidide = C1CCN(*)C1; dNMeA = CN[C@H](C)C(=O)O; Ac5c = NC1(C(=O)O)CCCC1; Aze = O=C(O)[C@@H]1CCN1; Sar = CNCC(=O)O

The target in the assay is T1, Kras and SOS1 (biotin-tagged human Kras loaded with GDP, His-tagged human SOS1) (Homo sapiens, UniProt P01116, G12D).
T1 construct: made in house; host or cells: E. coli (stated for Kras only)
T1 sequence (P01116 1-188 isoform P01116-2 G12D): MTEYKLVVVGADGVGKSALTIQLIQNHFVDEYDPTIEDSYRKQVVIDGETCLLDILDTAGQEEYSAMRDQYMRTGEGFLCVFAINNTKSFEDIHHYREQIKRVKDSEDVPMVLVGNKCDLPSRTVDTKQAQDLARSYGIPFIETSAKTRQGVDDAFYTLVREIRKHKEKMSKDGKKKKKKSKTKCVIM
Nature of the assay: Protein-protein interaction inhibition between Kras and SOS1 (KrasGl2D-SOS PPI) using AlphaScreen. The assay is classed as binding. The conditions noted are these: AlphaScreen; biotin-tagged human Kras loaded with GDP, His-tagged human SOS1; read-out: KRAS G12D-SOS PPI IC50. A digest of the protocol: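 Donor beads (nickel) hold His-SOS1; acceptor beads (streptavidin) hold biotin-Kras bound to GDP. Signal measured at 520-620 nm following 680 nm excitation.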
(Bead proximity is the source of the signal in Alpha formats.)
For orientation: pIC50 means the IC50 on a negative log10 scale, so that one unit is a factor of ten. Take `CC(C)C[C@H]1C(=O)N[C@@H](CO)C(=O)N(C)CC(=O)N(C)CC(=O)N(C)[C@@H](CC2CCCCC2)C(=O)N(C)CC(=O)N[C@@H](CCc2ccc(C(F)(F)F)c(Cl)c2)C(=O)N2CCC[C@H]2C(=O)NC2(CCCC2)C(=O)N(C)[C@@H](C2CCCCC2)C(=O)N(C)[C@H](C(=O)N2CCCCC2)CC(=O)N1C` [Compound 1799] ([NMeL]S[Sar][Sar][NMeCha][Sar][hPhe(3-Cl-4-CF3)]P[Ac5c][NMeChg][NMeD]-Piperidide; lactam N-11): the pIC50 was 7.82. On to `CC(C)C[C@H]1C(=O)N[C@@H](C)C(=O)N(C)CC(=O)N(C)CC(=O)N(C)[C@@H](CC2CCCCC2)C(=O)N(C)CC(=O)N[C@@H](CCc2ccc(C(F)(F)F)c(Cl)c2)C(=O)N2CCC[C@H]2C(=O)NC2(CCCC2)C(=O)N(C)[C@@H](C2CCCCC2)C(=O)N(C)[C@H](C(=O)N2CCCCC2)CC(=O)N1C` [Compound 1802] ([NMeL]A[Sar][Sar][NMeCha][Sar][hPhe(3-Cl-4-CF3)]P[Ac5c][NMeChg][NMeD]-Piperidide; lactam N-11), for which the pIC50 was 7.68.

Regarding `CC[C@H](C)[C@@H]1NC(=O)[C@H](C)N(C)C(=O)C[C@@H](C)N(C)C(=O)[C@H](C2CCCCC2)N(C)C(=O)C2(CCCC2)NC(=O)[C@@H]2CCCN2C(=O)[C@H](CCc2ccc(C(F)(F)F)c(Cl)c2)NC(=O)CN(C)C(=O)[C@H](CC2CCCCC2)N(C)C(=O)CN(C)C(=O)CN(C)C1=O` [Compound 1808] (cyclo([Ac5c][NMeChg][NMedβ3hAla][NMeA]I[Sar][Sar][NMeCha][Sar][hPhe(3-Cl-4-CF3)]P)), the pIC50 was 7.33. `CC[C@H](C)[C@@H]1NC(=O)[C@H](CC(C)C)N(C)C(=O)C[C@@H](C)N(C)C(=O)[C@H](C2CCCCC2)N(C)C(=O)C2(CCCC2)NC(=O)[C@@H]2CCCN2C(=O)[C@H](CCc2ccc(C(F)(F)F)c(Cl)c2)NC(=O)CN(C)C(=O)[C@H](CC2CCCCC2)N(C)C(=O)[C@@H]2CCN2C(=O)[C@H](C)N(C)C1=O` [Compound 1813] (cyclo([Ac5c][NMeChg][NMedβ3hAla][NMeL]I[NMeA][Aze][NMeCha][Sar][hPhe(3-Cl-4-CF3)]P)): the pIC50 was 7.44. For `CC[C@H](C)[C@@H]1NC(=O)[C@H](CC(C)C)N(C)C(=O)C[C@H](C(=O)N2CCCC2)N(C)C(=O)[C@H]([C@@H](C)CC)N(C)C(=O)C2(CCCC2)NC(=O)[C@@H]2CCCN2C(=O)[C@H](CCc2ccc(C(F)(F)F)c(Cl)c2)NC(=O)CN(C)C(=O)[C@H](CC2CCCCC2)N(C)C(=O)CN(C)C(=O)CN(C)C1=O` [Compound 1814] ([NMeL]I[Sar][Sar][NMeCha][Sar][hPhe(3-Cl-4-CF3)]P[Ac5c][NMeI][dNMeD]-Pyrrolidide; lactam N-11), the pIC50 is 6.77. As for `CCCC[C@H]1C(=O)N(C)[C@H](C(=O)N2CCCCC2)CC(=O)N(C)[C@@H](CC(C)C)C(=O)N[C@@H]([C@@H](C)CC)C(=O)N(C)CC(=O)N(C)CC(=O)N(C)[C@@H](CC2CCCCC2)C(=O)N(C)CC(=O)N[C@@H](CCc2ccc(C(F)(F)F)c(Cl)c2)C(=O)N2CCC[C@H]2C(=O)NC2(CCCC2)C(=O)N1C` [Compound 1815] ([NMeL]I[Sar][Sar][NMeCha][Sar][hPhe(3-Cl-4-CF3)]P[Ac5c][NMeNle][NMeD]-Piperidide; lactam N-11), the pIC50 is 8.60.

On to `CC[C@H](C)[C@@H]1NC(=O)[C@H](CC(C)C)N(C)C(=O)C[C@@H](C(=O)N2CCCC2)N(C)C(=O)[C@H](C2CCCC2)N(C)C(=O)C2(CCCC2)NC(=O)[C@@H]2CCCN2C(=O)[C@H](CCc2ccc(C(F)(F)F)c(Cl)c2)NC(=O)CN(C)C(=O)[C@H](CC2CCCCC2)N(C)C(=O)CN(C)C(=O)CN(C)C1=O` [Compound 1818] ([NMeL]I[Sar][Sar][NMeCha][Sar][hPhe(3-Cl-4-CF3)]P[Ac5c][NMeGly(cPent)][NMeD]-Pyrrolidide; lactam N-11), for which the pIC50 was 9.40.

Turning to `CC[C@H](C)[C@@H]1NC(=O)[C@H](CC(C)C)N(C)C(=O)C[C@@H](C(=O)N2CCCCC2)N(C)C(=O)[C@H](C(C)C)N(C)C(=O)C2(CCCC2)NC(=O)[C@@H]2CC(=O)CN2C(=O)[C@H](CCc2ccc(C(F)(F)F)c(Cl)c2)NC(=O)CN(C)C(=O)[C@H](CC2CCCCC2)N(C)C(=O)[C@@H]2CCN2C(=O)[C@H](C)N(C)C1=O` [Compound 1819] ([NMeL]I[NMeA][Aze][NMeCha][Sar][hPhe(3-Cl-4-CF3)][Pro(4-oxo)][Ac5c][NMeV][NMeD]-Piperidide; lactam N-11), the pIC50 is 8.42. For the compound `CC[C@H](C)[C@@H]1NC(=O)[C@H](C)N(C)C(=O)C[C@@H](C(=O)N2CCCC2)N(C)C(=O)[C@H](C2CCCCC2)N(C)C(=O)C2(CCCC2)NC(=O)[C@H](Cc2cccnc2)N(C)C(=O)[C@H](CCc2ccc(C(F)(F)F)c(Cl)c2)NC(=O)CN(C)C(=O)[C@H](CC2CCCCC2)N(C)C(=O)CN(C)C(=O)CN(C)C1=O` [Compound 1834] ([NMeA]I[Sar][Sar][NMeCha][Sar][hPhe(3-Cl-4-CF3)][NMe3Pal][Ac5c][NMeChg][NMeD]-Pyrrolidide; lactam N-11), the pIC50 is 9.09. The value for `CC[C@H](C)[C@@H]1NC(=O)[C@H](CC(C)C)N(C)C(=O)C[C@@H](C(=O)N(C)C)N(C)C(=O)[C@H]([C@@H](C)CC)N(C)C(=O)C2(CCCC2)NC(=O)[C@@H]2CCCN2C(=O)[C@H](CCc2ccc(C(F)(F)F)c(Cl)c2)NC(=O)CN(C)C(=O)[C@H](Cc2ccc(C)cc2)N(C)C(=O)CN(C)C(=O)CN(C)C1=O` [Compound 1836] ([NMeL]I[Sar][Sar][NMePhe(4-Me)][Sar][hPhe(3-Cl-4-CF3)]P[Ac5c][NMeI][NMeD]-NMe2; lactam N-11) was 9.33; that for `CC[C@H](C)[C@@H]1NC(=O)[C@H](CC(C)C)N(C)C(=O)C[C@@H](C(=O)N2CCCCC2)N(C)C(=O)[C@H](C2CCCCC2)N(C)C(=O)C2(CCCC2)NC(=O)[C@@H]2CCCN2C(=O)[C@H](CCc2ccc(C(F)(F)F)c(Cl)c2)NC(=O)CN(C)C(=O)[C@H](CC(F)(F)F)N(C)C(=O)CN(C)C(=O)CN(C)C1=O` [Compound 1841] ([NMeL]I[Sar][Sar][NMeAbu(4,4,4-F3)][Sar][hPhe(3-Cl-4-CF3)]P[Ac5c][NMeChg][NMeD]-Piperidide; lactam N-11) was 8.36; that for `CC[C@H](C)[C@@H]1NC(=O)[C@H](C)N(C)C(=O)C[C@@H](C(=O)N2CCCCC2)N(C)C(=O)[C@H](C(C)C)N(C)C(=O)C2(CCCC2)NC(=O)[C@@H]2CCCN2C(=O)[C@H](CCc2ccc(C(F)(F)F)c(Cl)c2)NC(=O)[C@@H](C)N(C)C(=O)[C@H](Cc2ccccc2)N(C)C(=O)CN(C)C(=O)CN(C)C1=O` [Compound 1844] ([NMeA]I[Sar][Sar][NMeF][dNMeA][hPhe(3-Cl-4-CF3)]P[Ac5c][NMeV][NMeD]-Piperidide; lactam N-11) was 7.77. Regarding `CC[C@H](C)[C@@H]1NC(=O)[C@H](CC(C)C)N(C)C(=O)C[C@@H](C(=O)N2CCOCC2)N(C)C(=O)[C@H](C(C)C)N(C)C(=O)C2(CCCC2)NC(=O)[C@@H]2CCCN2C(=O)[C@H](CCc2ccc(C(F)(F)F)c(Cl)c2)NC(=O)CN(C)C(=O)[C@H](CC2CCCC2)N(C)C(=O)CN(C)C(=O)CN(C)C1=O` [Compound 1848] ([NMeL]I[Sar][Sar][NMeAla(cPent)][Sar][hPhe(3-Cl-4-CF3)]P[Ac5c][NMeV][NMeD]-Morpholide; lactam N-11), the pIC50 was 8.85.

The values are drawn from patent US12371454B2, “Cyclic peptide compound having Kras inhibitory action” (priority 2019, dated 2025).
